Measurements: patent US7538099B1, “Antiprogestin method and kit for reducing side effects associated with low dosage HRT, oral contraception and regulating menses” (Eastern Virginia Medical School, priority 1992, dated 2009)
Where two headings read alike, the source gives them in different places. Values belong to the compound of their own block, whether it stands above or below them.

Legend:
[1] = system: ovariectomized cynomolgus monkeys; experiment: Example III: vaginal bleeding in ovariectomized monkeys on estradiol and low-dose progesterone implants, onapristone 40 mg/kg im; format: in vivo; conditions: for incidence of breakthrough bleeding: 40 mg/kg im, estradiol and low-dose progesterone replacement
Protocol: (§1) Twenty ovariectomized cynomolgus monkeys were implanted subcutaneously with an estradiol-containing silastic capsule (3 cm length).
The study was undertaken in two phases.
(§2) All monkeys have reached at least day 272. The estradiol implant will remain in place to day 301. […] A smaller progesterone implant (0.5 cm) will be in place from day 210 to 294. This implant is intended to produce a serum progesterone concentration of approximately 0.7 ng/ml. The two experimental groups (M=10/group) were as follows: • Group 1 Onapristone vehicle (saline) on days 180, 197, 240, and 270 • Group 2 Onapristone […] (40 mg/kg, im) on days 180, 197, 240, and 270

[2] = system: ovariectomized cynomolgus monkeys; experiment: Example II: vaginal bleeding in ovariectomized monkeys on estradiol and estradiol plus progesterone replacement, intermittent onapristone; format: in vivo, Macaca fascicularis
Protocol: (§3) Twenty previously ovariectomized cynomolgus monkeys (Macaca fascicularis) have implanted for 281 days a single estradiol-containing subcutaneous capsule. Estradiol release from this capsule results in serum estradiol concentrations of approximately 75 pg/ml. A subcutaneous progesterone capsule is implanted on day 191 and remains in place until day 281. Progesterone release from this capsule results in serum progesterone concentrations of approximately 4 ng/ml. The study takes place in the animal research facilities of the Eastern Virginia Medical School as described in Example I.
The purpose of this study was to evaluate break-through bleeding prior to and after onapristone treatment in ovariectomized monkeys receiving estrogen and estrogen plus progesterone replacement therapy. The twenty monkeys were assigned to the following four groups: Group I receives onapristone vehicle (saline) on days 30, 60, 90, 120, 150, 180, 210, 240, 270. Group 2 receives 3 mg/kg i.m. onapristone on days 30, 60, 90, 120, 150, 180, 210, 240, 270. Group 3 is treated with 10 mg/kg i.m. onapristone on the same days. Group 4 receives 30 mg/kg i.m. onapristone on the same days. Vaginal swabs are performed daily from day 1 to 281. The primary parameter for evaluation in this study is the occurrence of vaginal bleeding.

[3] = system: adult female rhesus monkeys; experiment: Example I Part II: daily vaginal swabs for bleeding, ultra low dose oral contraception with or without intermittent RU 486, 180 days; format: in vivo, Macaca mulatta
From the text: In Part II, 30 of these primates were randomly assigned to five treatment groups of six each: (1) the oral contraceptive medication employed in Part I was continued (21+7 day regimen) for 6 months; (2) continuous (no “pill-free” interval) daily estrogen-progestin medication, with combined single day oral administration of an antiprogestin (RU 486) on treatment days 30, 60, 90, 120, 150, and 180; (3) same as group 2, except that the progesterone antagonist was given only on days 60, 120, and 180; (4) same as group 2, except that RU 486 was given only on days 90 and 180; and (5) 180 days of continuous estrogen-progestin daily therapy, but without any antiprogestin treatment. Daily monitoring to detect vaginal blood, as in Part I above, was discontinued at 187 days. Femoral blood was collected once weekly throughout in order to identify potential breakthrough ovulation via progesterone elevations; serum values above 1.0 ng/ml were considered indicative of ovarian luteal function and possible ovulation. Likewise, these same specimens were analyzed for estradiol levels in order to monitor ongoing endogenous estrogen biosynthesis. […]
Data derived from Part II of the study was listed by treatment group with the profiles of endometrial bleeding through six treatment cycles to 180 days. Mean (+SEM) number of days for breakthrough bleeding or menses was calculated by dividing the total number of incidents recorded (per treatment cycle in the case of group 1 or 30 days intervals for groups 2 to 5) by the number of individuals observed in the group. In the tabulation of data, menses (withdrawal or induced bleeding at expected intervals) was scored for vaginal blood detected within the “pill free” interval for group 1 or within seven days after the intermittent administration of RU 486 during continuous ultra low dose oral contraception (groups 2 to 4). Similarly, failure to observe vaginal bleeding during these times of expected menses, either withdrawal of the oral contraceptive medication or soon after giving the progesterone antagonist, was scored as withdrawal amenorrhea.

[4] = system: ovulation (serum estradiol and progesterone); experiment: Example I Part II: weekly serum progesterone and estradiol (breakthrough ovulation, endogenous estrogen biosynthesis); format: in vivo, Macaca mulatta; conditions: continuous ultra low dose regimen plus intermittent RU 486; almost unvarying
From the text: In Part II, 30 of these primates were randomly assigned to five treatment groups of six each: (1) the oral contraceptive medication employed in Part I was continued (21+7 day regimen) for 6 months; (2) continuous (no “pill-free” interval) daily estrogen-progestin medication, with combined single day oral administration of an antiprogestin (RU 486) on treatment days 30, 60, 90, 120, 150, and 180; (3) same as group 2, except that the progesterone antagonist was given only on days 60, 120, and 180; (4) same as group 2, except that RU 486 was given only on days 90 and 180; and (5) 180 days of continuous estrogen-progestin daily therapy, but without any antiprogestin treatment. Daily monitoring to detect vaginal blood, as in Part I above, was discontinued at 187 days. Femoral blood was collected once weekly throughout in order to identify potential breakthrough ovulation via progesterone elevations; serum values above 1.0 ng/ml were considered indicative of ovarian luteal function and possible ovulation. Likewise, these same specimens were analyzed for estradiol levels in order to monitor ongoing endogenous estrogen biosynthesis. Two monkeys, in groups 1 and 3, respectively, were dropped from the ongoing protocol, one due to a skin rash and the other because of a thumb infection requiring topical treatment. Neither incident is believed to be related to the hormonal treatments.

[5] = set-up: species or system cynomolgus monkeys; conditions: female, cynomolgus monkey, in vivo, sc
Protocol: as §1, §2

[6] = Example II: serum hormone concentrations from subcutaneous capsules; format: in vivo, Macaca fascicularis
Protocol: as §3

SMILES: CN(C)c1ccc([C@H]2C[C@]3(C)[C@@H](CC[C@]3(O)CCCO)[C@@H]3CCC4=CC(=O)CCC4=C32)cc1 [Onapristone]
incidence of breakthrough bleeding [1]: reduced the incidence of BTBs
incidence of breakthrough bleeding ([1]; listed as onapristone): reduced the incidence of breakthrough bleeding
days of bleeding that followed the day 197 onapristone treatment ([1]; Group 2, 40 mg/kg): Twelve of the twenty days
monkeys in which bleeding followed the day 197 treatment ([1]; Group 2, 40 mg/kg): four of the ten monkeys
monkeys in which bleeding occurred ([1]; Group 2, 40 mg/kg): seven of the ten monkeys
days of unscheduled vaginal bleeding (breakthrough bleeding) ([1]; Group 2, 40 mg/kg im, controls 33 days): 2 days
days of bleeding that followed the day 240 onapristone treatment ([1]; Group 2, 40 mg/kg, in one monkey): Six of the twenty days
days of vaginal bleeding ([1]; Group 2, 40 mg/kg, out of 800 days of observation): 20 days
withdrawal-bleeding ([1]; monkeys substituted with E2 and low-dose progesterone): induced withdrawal-bleeding
incidence of breakthrough bleeding ([2]; Groups 2-4: 3, 10, 30 mg/kg i.m. every 30 days, estradiol capsule): lowers the incidence of breakthrough bleeding
induction of bleeding by onapristone during estradiol treatment ([2]; Groups 2-4: 3, 10, 30 mg/kg i.m. every 30 days, estradiol capsule only): does not induce bleeding
induction of vaginal bleeding during combined estradiol and progestin treatment ([2]; after progesterone capsule implanted (day 191)): induces vaginal bleeding

SMILES: CC#C[C@]1(O)CC[C@H]2[C@@H]3CCC4=CC(=O)CCC4=C3[C@@H](c3ccc(N(C)C)cc3)C[C@@]21C [RU 486]
duration of menses after RU 486 ([3]; RU 486 50 mg intermittently during continuous ultra low dose oral contraception, P<0.05 versus interrupted pill cycle alone): 3.1 ± 0.8 days
time to induced bleeding after RU 486, all instances ([3]; administered at 30, 60 or 90 day intervals): ≤ 72 h
reduction of overall breakthrough bleeding incidence ([3]; single 50 mg oral RU 486 doses at 30, 60 or 90 day intervals during continuous ultra low dose oral contraception, groups 2 to 4 combined versus group 1, P<0.05): 57%
serum estradiol levels [4]: ~25 pg/mL

serum estradiol concentrations [5]: approximately 75 pg/ml
breakthrough bleedings (BTBs) with E2 alone ([1]; ovariectomized monkeys substituted with E2 alone): do not exhibit breakthrough bleedings
rate of breakthrough bleeding with progressing duration of estradiol treatment ([2]; Group 1, estradiol capsule, onapristone vehicle): increasing rate of breakthrough bleeding
serum estradiol concentrations ([6]; single estradiol-containing subcutaneous capsule): approximately 75 pg/ml
SMILES: C[C@]12CC[C@@H]3c4ccc(O)cc4CC[C@H]3[C@@H]1CC[C@@H]2O [estradiol]

BTBs after addition of low-dose progesterone ([1]; on estradiol implant): increase in BTBs
serum progesterone concentrations ([6]; subcutaneous progesterone capsule, day 191 to 281): approximately 4 ng/ml
SMILES: CC(=O)[C@H]1CC[C@H]2[C@@H]3CCC4=CC(=O)CC[C@]4(C)[C@H]3CC[C@]12C [progesterone]
